In patent US3984543A, “Therapeutic methods employing cyclic aminophosphonic acids” (Henkel & Cie G.m.b.H., priority 1973, dated 1976):

Assays:
[1] = Sequestration of calcium (modified Hampshire test); format: physicochemical; conditions: pH 11; for Consumption of Sequestering Agent Solution: 1 gm sequestering agent in 50 ml H2O, until CaCO3 precipitate redissolved
Method: In the investigation of the sequestration of calcium, a modified Hampshire test was employed and worked as follows:
1 gm of the sequestering agent was dissolved in 50 ml of H2 O, adjusted with NaOH to a pH of 11. 50 ml of a Ca^+^+ solution (1470 mg of CaCl2.2H2 0/1) were mixed with 100 ml of a sodium carbonate solution (7.15 gm NaCO3.10H2 O/l.). Then the solution of the sequestering agent was added in drops from a burette until the calcium carbonate precipitate was redissolved. The values formed have been reported in Table I. For the sake of simplicity, only the value for n and the various substituents for R according to Formula I are indicated in the left column of the Table.

[2] = Inhibition of precipitation of NH4 MgPO4 in vitro; format: physicochemical; conditions: pH 7.4, 72 hours
Method: Since the precipitation of NH4 MgPO4 is occasionally the cause of the formation of urinary calculus, the inhibition of the precipitation of NH4 MgPO4 was also tested in aqueous solutions at pH 7.4. The test was carried out as follows.
A fixed amount of the phosphonic acid was weighed into a beaker and dissolved with 25 ml of a phosphate solution (13.799 gm of NaH2 PO4.H2 O/liter) as well as with 40 ml of distilled water, and standardized with NaOH to a pH of 7.4. After adding 25 ml of a Mg^+^+ and NH4 ^+ solution (20.333 gm of MgC12.6H2 O and 5.349 gm of NH4 Cl/liter, standardized to a pH of 7.4), the solution was brought up with distilled H2 O to 100 ml. Then the sample was covered and evaluated after 72 hours for amount and appearance of the precipitate. The explanation of the data in the left column is to be found in Example 8.

[3] = Calcium phosphate dissolution in vitro (CaHPO4 test); format: physicochemical; conditions: for Consumption Sequestering Agent Solution: 10 mg/ml solution, pH 7.4, clear solution after 1 hour; for mg CaHPO4 dissolved / gm Sequestering Agent: pH 7.4, 1 hour
Method: Essential tests for the effectiveness of the compounds in physiological systems are in vitro tests for the dissolving of freshly precipitated CaHPO4, as well as preventing the precipitation of NH4 MgPO4 at a pH of 7.4. The "CaHPO4 test" was carried out as follows.
By combining 25 ml of a phosphate solution (1.38 gm of NaH2 PO4.H2 O/liter, standardized to a pH of 7.4) and 25 ml of a calcium solution (1.45 gm of CaCl2.2H2 O/liter, standardized to a pH of 7.4), a precipitate of CaHPO4 was produced. Thereafter, so much of a solution of the sequestering agent (at a concentration of 10 mg/ml) was added from a burette that a clear solution was obtained after standing for 1 hour.

[4] = Apatite crystallization delay test in vitro; format: physicochemical; conditions: 2 mg, pH 7.4, 35°C
Method: Supersaturated solutions of Ca^+^+ and HPO4 ^-^- ions are relatively stable, but crystallize after the addition of an apatite nuclei according to the reaction
with the release of protons. The reaction can, therefore, be readily observed by titration with a base at a constant pH.
400 ml of 0.0008 molar KH2 PO4 solution were mixed with 45 ml of a 0.012 molar CaCl2 solution, and the clear solution was standardized with KOH to a pH of 7.4, after being brought to a temperature of 35°C. […] The crystallization set in immediately and was followed by "pH-Stat" titration with 0.05 N KOH.
If a small amount (2 mg) of one of the cyclic aminophosphonic acids of the invention was added to the solution before the apatite was added, the crystallization was greatly delayed.
For simplicity's sake, only the value for n and the various substituents for R according to Formula I in Example 8 are indicated in the left column of the Table.

[5] = Threshold effect: prevention of precipitation of poorly soluble calcium compounds by substoichiometric amounts; format: physicochemical; conditions: 30 minutes
Method: The prevention of the precipitation of poorly soluble calcium compounds by substoichiometric amounts of a sequestering agent was determined at 60° and 95° C as follows:
25 ml of 80° dH (German hardness) water (corresponding to 800 mg CaO/l.) were mixed with a 10 ml of a solution of the sequestering agent (concentration: 300 mg/l.). After dilution with distilled water to 70 ml, 25 ml of a sodium carbonate solution containing 4 gm/l. were added and the solution was brought to 100 ml. After heating for 30 minutes at the indicated temperature, any precipitate formed was separated. The sequestering agent was removed from a measured amount of the clear filtrate by means of an anion exchange resin. Then the content of the dissolved calcium in this sample was determined by complexometry (according to Scharzenbach).

[6] = Acute toxicity (LD50) in mice; conditions: mouse, in vivo
Excerpt: The new phosphonic acids are characterized by a very low acute toxicity. The following LD50 values of Table IV were found in mice. For the explanation of the data in the left column of Table IV, see Example 8.

SMILES | Consumption of Sequestering Agent Solution [1] [mL] | mg CaCO3 Sequestered per gm of Compound [1] | Consumption Sequestering Agent Solution [3] [mL] | mg CaHPO4 dissolved / gm Sequestering Agent [3] | Delay of crystallization in % after 4 Hours [4] [%] | Delay of crystallization in % after 8 Hours [4] [%] | CaO in Solution ([5]; 60 °C) [%] | CaO precipitated ([5]; 60 °C) [%] | CaO in Solution ([5]; 95 °C) [%] | CaO precipitated ([5]; 95 °C) [%] | LD50 [6] [mg/kg] | also measured
CCNC1(P(=O)(O)O)CCC(=O)N(CC)P1(=O)O (stereo not shown) [n=2, R=C2 H5, 1-Ethyl-2-hydroxy-2-oxo-3-ethylamino-3-phosphonyl-6-oxo-1-aza-2-phospha-cyclohexane] | 2.25 | 1110 mg CaCO3 per gm of Compound | – | – | – | – | – | – | – | – | – | –
CNC1(P(=O)(O)O)CCCC(=O)N(C)P1(=O)O (stereo not shown) [n=3, R=CH3, 1-Methyl-2-hydroxy-2-oxo-3-methylamino-3-phosphonyl-7-oxo-1-aza-2-phospha-cycloheptane] | 3.8 | 660 mg CaCO3 per gm of Compound | 5.0 | 680 mg CaHPO4 / gm Sequestering Ag | – | – | – | – | – | – | – | Precipitation after 72 hours: NH4 MgPO4 crystals ([2]; 72 mg): Few NH4 MgPO4 crystals; Precipitation after 72 hours: NH4 MgPO4 crystals ([2]; 144 mg): No NH4 MgPO4 crystals
CNC1(P(=O)(O)O)CCC(=O)N(C)P1(=O)O (stereo not shown) [n=2, R=CH3, 1-Methyl-2-hydroxy-2-oxo-3-methylamino-3-phosphonyl-6-oxo-1-aza-2-phospha-cyclohexane] | 3.0 | 840 mg CaCO3 per gm of Compound | 4.0 | 850 mg CaHPO4 / gm Sequestering Ag | 84 | 76 | – | – | – | – | – | Precipitation after 72 hours: NH4 MgPO4 crystals ([2]; 145 mg): Very few NH4 MgPO4 crystals; Precipitation after 72 hours: cloudiness ([2]; 145 mg): no cloudiness; Precipitation after 72 hours: NH4 MgPO4 crystals ([2]; 217.5 mg): No NH4 MgPO4 crystals; Precipitation after 72 hours: cloudiness ([2]; 217.5 mg): no
NC1(P(=O)(O)O)CC(=O)NP1(=O)O (stereo not shown) [n=1, R=H, 2-Hydroxy-2-oxo-3-amino-3-phosphonyl-5-oxo-1-aza-2-phospha-cyclopentane] | 2.6 | 1040 mg CaCO3 per gm of Compound | 8.0 | 420 mg CaHPO4 / gm Sequestering Ag | – | – | 76.1 | 23.9 | 87.7 | 12.3 | – | –
NC1(P(=O)(O)O)CCC(=O)NP1(=O)O (stereo not shown) [n=2, R=H, 2-Hydroxy-2-oxo-3-amino-3-phosphonyl-6-oxo-1-aza-2-phospha-cyclohexane] | 2.6 | 1040 mg CaCO3 per gm of Compound | 6.0 | 570 mg CaHPO4 / gm Sequestering Ag | – | – | 99.6 | 0.4 | 99.5 | 0.5 | 3200 | Precipitation after 72 hours: NH4 MgPO4 crystals ([2]; 61 mg): Few NH4 MgPO4 crystals; Precipitation after 72 hours: cloudiness ([2]; 61 mg): some; Precipitation after 72 hours: NH4 MgPO4 crystals ([2]; 122 mg): No NH4 MgPO4 crystals; Precipitation after 72 hours: cloudiness ([2]; 122 mg): great
NC1(P(=O)(O)O)CCCC(=O)NP1(=O)O (stereo not shown) [n=3, R=H, 2-Hydroxy-2-oxo-3-amino-3-phosphonyl-7-oxo-1-aza-2-phospha-cycloheptane] | 3.1 | 810 mg CaCO3 per gm of Compound | 2.5 | 1350 mg CaHPO4 / gm Sequestering Ag | 96 | 96 | 99.6 | 0.4 | 99.5 | 0.5 | 10000 | Precipitation after 72 hours: NH4 MgPO4 crystals ([2]; 68.5 mg): Fewer NH4 MgPO4 crystals; Precipitation after 72 hours: cloudiness ([2]; 68.5 mg): great cloudiness
